What all share (assay): NCI-60 cell line screen, 48 h
Assay [1] has as its system A498 renal.
Assay [2] has as its system CCRF-CEM leukemia.
Assay [3] concerns COLO 205 colon.
Assay [4] has as its system HCT-116 colon.
The test system of assay [5] is MOLT-4 leukemia.
Assay [6] relates to NCI-H226 lung.
Assay [7] concerns NCI-H522 lung.
Assay [8] relates to OVCAR-5 ovarian.
Assay [9] relates to RPMI-8226 leukemia.
For assay [10], the system named is SNB-19 CNS.
In assay [11] the test system is SW-620 colon.
Assay [12] has as its system UACC-257 melanoma.

Our source for the TGI and GI50 values is PubChem BioAssay (NCI).

Structures are written as SMILES.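 1) Cells in 96-well plates. 2) Compound, 48 h, 5 concentrations. 3) Linear interpolation between surrounding doses. 4) Unreached endpoint = highest concentration. GI50 = concentration required for 50% inhibition of growth. At the TGI there is no net growth.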

For `CC(=O)O[C@H]1[C@H](OC(C)=O)[C@@H](CN=[N+]=[N-])OCO[C@@H]1CN=[N+]=[N-]`, the TGI in assay [1], in [2], in [3], in assay [4], in assay [5] and in assay [6] was over 100 µM each time. The TGI in [7], in assay [8], in [9], in [10], in [11] and in [12] was over 100 µM throughout.

As for `CC(C)[Si](OCC1CC(C[C@H]2CC(C[C@H]3C[C@@H](CO[Si](C(C)C)(C(C)C)C(C)C)OC(C)(C)O3)OC(C)(C)O2)OC(C)(C)O1)(C(C)C)C(C)C` (stereo partly specified), the TGI in assay [1], in assay [2], in [3], in assay [4], in assay [5] and in [6] was over 100 µM in each case. The TGI in assay [7], in assay [8], in [9], in assay [10], in assay [11] and in [12] was over 100 µM throughout.

Regarding `O=C(Nc1nncs1)NS(=O)(=O)n1cnc2ccccc21`, the TGI in assay [1], in [2], in [3], in assay [4], in assay [5] and in assay [6] was over 100 µM throughout. In addition, the TGI in assay [7], in assay [8], in [9], in assay [10], in assay [11] and in assay [12] was over 100 µM in each case.

Consider `NC1=NN(c2ccccc2)C2(c3ccncc3C(=O)O)C1C(N)=NN2c1ccccc1` (stereo unspecified), for which the TGI in [1], in assay [2], in assay [3], in [4], in [5] and in assay [6] was over 100 µM throughout. The TGI in assay [7], in assay [8], in assay [9], in [10], in [11] and in assay [12] was over 100 µM each time.

For the molecule `NC(CCCNc1cccc(O)c1)C(=O)O` (stereo unspecified), the TGI in [1], in assay [2], in [3], in [4], in assay [5] and in assay [6] was over 100 µM throughout. Moreover, the TGI in assay [7], in assay [8], in [9], in [10], in [11] and in assay [12] was over 100 µM each time.

`CC(=O)[O-].[Ni].c1ccc(/C(=N\Nc2ccccn2)c2ccccn2)cc1`: the TGI in assay [1] worked out at 36.3 µM; in assay [2], 44.3 µM; in assay [4] it was 18 µM; in assay [5] it was 24.3 µM; in assay [6], 47.6 µM; in assay [7], 20.9 µM. In addition, the TGI in assay [8] was determined as 47.3 µM; in [9], 16.3 µM; in assay [10], 54 µM; in assay [11], 32.2 µM; in [12], 23.2 µM. In addition, the results for the GI50 in assay [2], in assay [3] and in assay [5] were 0.0976 µM, 0.0121 µM and 0.076 µM, respectively.

With `CC1(C)O[C@H]2[C@@H]3N=C(c4ccccc4)O[C@@H]3C=C[C@H]2O1`, the TGI in assay [1], in assay [2], in assay [3], in assay [4], in [5] and in [6] was over 100 µM throughout. The TGI in [7] was 17.4 µM; in assay [8], over 100 µM; in [9] it was over 100 µM; in assay [10], over 100 µM; in assay [11], over 100 µM; in assay [12], over 100 µM.

`O=C(O)C(Cc1cnc[nH]1)N=Cc1nc(-c2ccccc2)oc1O` (stereo unspecified): the TGI in [1], in assay [2], in [3], in assay [4], in [5] and in assay [6] was over 100 µM in each case. The TGI in assay [7], in assay [8], in assay [9], in assay [10], in assay [11] and in [12] was over 100 µM each time.

On to `Cc1ccc(S(=O)C[C@@]2(C(F)F)NC(=O)NC2=O)cc1` (stereo partly specified), for which the TGI in [1], in assay [2], in assay [3], in assay [4], in assay [5] and in assay [6] was over 100 µM in each case. Besides, the TGI in assay [7], in assay [8], in assay [9], in [10], in assay [11] and in assay [12] was over 100 µM in each case.

Take `COc1cc(-c2c3c([nH]c(=O)c2C#N)-c2cc([N+](=O)[O-])ccc2CCC3)cc(OC)c1OC`: the TGI was 66.9 µM in [1]; over 100 µM in assay [2]; 43.3 µM in [3]; 37.7 µM in assay [4]; over 100 µM in assay [5]; 89 µM in [6]. Moreover, the TGI in [7] was 59 µM; in assay [8] it was 69.1 µM; in assay [9] it was 52.1 µM; in assay [10] it was over 100 µM; in assay [11], over 100 µM; in assay [12], over 100 µM.

As to `COc1cc(CNC(=O)[C@H](Cc2ccc(O)cn2)NC(C)=O)cc(OC)c1`, the TGI in assay [1], in assay [2], in [3], in [4], in assay [5] and in assay [6] was over 100 µM each time. Moreover, the TGI in [7], in [8], in [9], in [10], in assay [11] and in [12] was over 100 µM throughout.

Turning to `CC(=O)[O-].CC(=O)[O-].O=C(N/N=C/c1cc(Cl)cc(Cl)c1[OH2+])c1ccncc1.[Zn+2]`, the TGI in assay [1], in assay [2], in [3], in assay [4], in [5] and in assay [6] was over 100 µM each time. Further, the TGI in [7], in assay [8], in [9], in [10], in assay [11] and in assay [12] was over 100 µM each time.

As to `O=c1c2ccccc2c2c1c1c3ccccc3c(=O)c1c1c3ccccc3c(=O)c21`, the TGI in [1], in assay [2], in assay [3], in [4], in [5] and in [6] was over 100 µM in each case. Further, the TGI in [7], in assay [8], in assay [9], in assay [10], in [11] and in assay [12] was over 100 µM throughout.

In the case of `COC1=CC(=O)c2c(O)ccc(O)c2C1=O`, the TGI in assay [1] was found to be 31.6 µM; in assay [2], 43.6 µM; in assay [3], 3.07 µM; in assay [4], 31.2 µM; in assay [5] it was 44.3 µM; in assay [6] it was 43.8 µM. Also, the TGI was 26 µM in assay [7]; 35.7 µM in [8]; 38.2 µM in [9]; 18.8 µM in assay [10]; 17.7 µM in assay [11]; 2.88 µM in [12].

In the case of `CC(C)CCNC(=O)c1ccc(CNC(=O)/C=C/c2csc(-c3ccccc3)n2)cc1`, the TGI in [1], in assay [2], in assay [3], in [4], in assay [5] and in assay [6] was over 100 µM in each case. For the same molecule, the TGI is over 100 µM in [7]; over 100 µM in assay [8]; over 100 µM in assay [9]; 56.6 µM in [10]; over 100 µM in assay [11]; over 100 µM in assay [12].

Take `O=NNc1cnccn1`: the TGI is over 1250 µM in [1]; over 1250 µM in assay [2]; over 1250 µM in assay [3]; over 1250 µM in assay [4]; 876 µM in assay [5]; over 1250 µM in [6]. The TGI in [7], in assay [8], in assay [9], in [10], in assay [11] and in assay [12] was over 1250 µM throughout.

Turning to `O=c1[nH]cc(N(CCCl)CCCl)c(=O)[nH]1`, the TGI in [1] is 191 µM; in [2], 113 µM; in [3], 157 µM; in assay [4] it was 179 µM; in [5] it was 28.3 µM; in assay [6], 179 µM. Further, the TGI was determined as 60.9 µM in [7]; 186 µM in assay [8]; 284 µM in [9]; 400 µM in [10]; 249 µM in assay [11]; 159 µM in assay [12].

`OCCCCn1cc(Cn2ncc3c(SCc4ccccc4)ncnc32)nn1`: the TGI in assay [1] was over 100 µM; in assay [2], over 100 µM; in assay [3], 91.4 µM; in assay [4] it was over 100 µM; in [5] it was 77.3 µM; in assay [6] it was over 100 µM. Moreover, the TGI in assay [7] is over 100 µM; in assay [8] it was over 100 µM; in assay [9], over 100 µM; in assay [10], over 100 µM; in assay [11], 90.9 µM; in assay [12], over 100 µM.

Consider `Cc1ccc(NC(=O)C(=O)C2NC(=S)NC2=O)c([N+](=O)[O-])c1` (stereo unspecified), for which the TGI in assay [1], in assay [2], in assay [3], in assay [4], in assay [5] and in [6] was over 100 µM each time. The TGI in assay [7], in assay [8], in assay [9], in assay [10], in assay [11] and in assay [12] was over 100 µM throughout.

`CCOC(=O)/C=C(\C(=O)OCC)n1cnc2c(N)ncnc21`: the TGI in assay [1] amounted to 17.7 µM; in [2], 4.51 µM; in assay [3], 4.6 µM; in assay [4], 12.3 µM; in assay [5], 6.89 µM; in [6], 13 µM. Besides, the TGI stood at 6.09 µM in assay [7]; 14 µM in assay [8]; 5.4 µM in assay [9]; 30 µM in assay [10]; 8.49 µM in [11]; 27.8 µM in assay [12].

For the molecule `COC(=O)c1cc(-c2ccc(-c3ccc(O)cc3)cc2)cc(-c2ccc(-c3ccc(O)cc3)cc2)c1`, the TGI turned out to be 34.7 µM in assay [1]; 31.2 µM in assay [2]; 31 µM in [3]; 17.9 µM in [4]; 22.1 µM in [5]; 32.6 µM in assay [6]. For the same molecule, the TGI in assay [7] was found to be 8.66 µM; in assay [8], 29.1 µM; in assay [9] it was 27.5 µM; in assay [10], 32.8 µM; in [11], 21.9 µM; in assay [12], 33.3 µM.

On to `CC(=O)N1CC[N+](C)(CCCCN2c3ccccc3Sc3cc(N=[N+]=[N-])ccc32)CC1`, for which the TGI in assay [1], in assay [2], in assay [3], in assay [4], in assay [5] and in assay [6] was over 100 µM throughout. The TGI in [7], in [8], in [9], in assay [10], in assay [11] and in assay [12] was over 100 µM in each case.
